Values of other authors, collected in patent US7235142B2, “Non-toxic corrosion-protection rinses and seals based on cobalt” (University of Dayton, priority 2002, dated 2007).

Settings: pH 7

Compound | Solubility in Water [mM]
N.N.N.N.N.N.[Cl-].[Cl-].[Cl-].[Co+3] [Hexaammine cobalt (III) chloride] | 220
[O-][Cl+3]([O-])([O-])O [Sodium perchlorate] | 15000
N.N.N.N.N.[Cl][Co]([Cl])[Cl] [Pentaammine cobalt (III) chloride] | 930
[O-][Cl+3]([O-])([O-])[O-].[O-][Cl+3]([O-])([O-])[O-].[Sr+2] [Strontium perchlorate] | 11000
